The source of these data is patent publication US8715628B1, “Cosmetic compositions and methods for inhibiting or reducing trypsin activity” (The Procter & Gamble Company, priority 2011, dated 2014).

Values joined by “and” are separate entries in the source; they are usually repeats but may differ in a detail not shown here. Equal entries are not always repeated.

The target in this test is T1, Trypsin from a bovine pancreas (Bos taurus, UniProt P00760).
T1 construct: Trypsin from a bovine pancreas; purchased Sigma-Aldrich T8802; host or cells: bovine pancreas (tissue-derived)
T1 sequence (P00760 24-246): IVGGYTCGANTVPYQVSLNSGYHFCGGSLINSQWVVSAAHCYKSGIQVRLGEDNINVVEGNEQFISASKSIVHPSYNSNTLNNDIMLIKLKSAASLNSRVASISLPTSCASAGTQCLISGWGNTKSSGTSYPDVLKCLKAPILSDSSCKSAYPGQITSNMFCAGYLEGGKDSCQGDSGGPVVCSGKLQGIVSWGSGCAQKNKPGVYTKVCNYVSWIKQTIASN
The test is described as follows: Trypsin assay (fluorogenic substrate Z-Phe-Arg-7-amido-4-methylcoumarin, kinetic slope vs vehicle control). The test is classed as biochemical. Conditions: single-well values, n=8 wells. As to the method: Trypsin from a bovine pancreas (available from Sigma-Aldrich, USA, Catalog #T8802) is diluted in phosphate buffered saline (PBS) to make a stock of about 0.001% trypsin. In a 96 well white plate with clear bottom (e.g., Corning Costar #3904 available from _VWR International, LLC, Pennsylvania, USA), about 90 uL of 0.001% trypsin stock is mixed with about 10 uL of a test compound (e.g., N-undecylenoyl-L-phenylalanine) or vehicle control, such as dimethyl sulfoxide (DMSO) or water. Typically, there are 8 control wells per plate. The assay is initiated by the addition of 100 uL of the substrate, Z-Phe-Arg-7-amido-4-methylcoumarin (e.g., Calbiochem Catalog #03-32-1501-10 mM in PBS available from Life Technologies, California, USA) and the well plate is monitored in a fluorescent plate reader (e.g., a Gemini plate reader) with an excitation wavelength of 360 nm and an emission wavelength of 460 nm. The reaction progress is measured in a kinetic mode for 5 minutes. SoftMaxPro Data Analysis Software (available from Molecular Devices, Inc.) is used to fit a line to the data points for each well, and the slopes of the lines are then calculated. The slopes of each test compound well are compared to the average of the slopes of the vehicle control wells of a plate to determine the percentage of trypsin activity using equation (1) below. As the trypsin hydrolyzes the substrate, the fluorescence of the 7-amido-coumarin group increases, causing a growth in the signal which reflects the level of trypsin activity. An inhibitor attenuates the fluorescence growth resulting in a smaller slope. Percent(%)trypsin activity=[slope of test well]/[average slope of vehicle control wells] (1)
Using generally the method outlined above, the percentage of trypsin activity was measured for 1:900 dilution of 1% N-undecylenoyl-L-phenylalanine, 3% myo-inositol, 5% niacinamide, and 5% hexyldecanol using a sample size of n=8 wells for each compound. […]

Turning to `CCCCCCCCC(CO)CCCCCC` (stereo not shown) [Hexyldecanol, 2-Hexyldecan-1-ol], the “% Activity (percentage of trypsin activity)” value (1:900 dilution of 5% hexyldecanol) was 87.1% and 90.7% and 85.7% and 100.0% and 112.4% and 112.0% and 88.7% and 95.4%. For the molecule `C=CCCCCCCCCC(=O)N[C@@H](Cc1ccccc1)C(=O)O` [N-undecylenoyl-L-phenylalanine], where the note is “1:900 dilution of 1% N-undecylenoyl-L-phenylalanine, >100% up-regulation, <100% inhibition”, the “% Activity (percentage of trypsin activity)” value is 91.4% and 104.9% and 97.2% and 100.5% and 121.8% and 116.3% and 79.9% and 99.8%.

For `NC(=O)c1cccnc1` [Niacinamide, niacinamide], the “% Activity (percentage of trypsin activity)” value (1:900 dilution of 5% niacinamide) is 106.0% and 91.8% and 91.3% and 107.7% and 111.1% and 109.1% and 93.9% and 88.7%.

For the molecule `O[C@H]1[C@H](O)[C@@H](O)[C@H](O)[C@@H](O)[C@H]1O` [Myo-Inositol, myo-inositol], the “% Activity (percentage of trypsin activity)” value (1:900 dilution of 3% myo-inositol) was 93.8% and 112.4% and 101.4% and 108.9% and 108.0% and 121.4% and 95.6% and 109.2%.
